Assay results reported in US20130225694A1, “COMPOSITIONS AND METHODS OF INHIBITING RETINAL DEGENERATION” (Oklahoma Medical Research Foundation, priority 2012, published 2013).
Where two headings read alike, the source gives them in different places.

Assays:
[1] = tested on: rhodopsin; experiment: Rhodopsin regeneration after bleach in rats, IP nitrone; assay type: in vivo, rat; conditions: Rattus norvegicus; rats, 50 mg/kg IP, 2 h room light then 2.5 h dark adaptation
Protocol: FIG. 10 graphically illustrates the effects of three PBN analogs of rhodopsin regeneration. Rhodopsin content was measured as nmole/retina following the procedure as in Mandal et al. (J Biol. Chem. 2011. 286 (37):32491-501). After injection with PBN derivatives or vehicles (saline), rats were left in room light for 2 hours (light adapted or LA) and then moved to dark. At 2.5 hours dark adaptation (DA), retinas were harvested. DA-Control, Dark adapted (12 h) control retina without any treatment to show normal rhodopsin content.
Measurement of rhodopsin regeneration—To measure the effect of PBN on the rate of rhodopsin regeneration, dark-adapted rats were injected intraperitoneally with PBN (50 mg/kg) or PBS 0.5 hour prior to a 2 hour bleach in room light (˜400 lux). Immediately following the bleach (time=0 minutes), a group of PBN- and vehicle-treated rats were killed, and retinas were removed and snap frozen. The remaining rats were dark-adapted, and retinas were collected under dim red light at 45, 90, and 180 minutes after the bleach.
Rhodopsin measurements were performed as described previously (2,36) with slight modification. Briefly, under dim red light, each retina was homogenized in 450 μl of buffer containing 10 mM Tris-HCl (pH 7.4), 150 mM NaCl, 1 mM EDTA, 2% (w/v) octylglucoside, and 50 mM hydroxylamine. Homogenates were centrifuged at 16,000 g, and soluble lysates were scanned from 270-800 nm in a spectrophotometer (Ultrospec 3000 UV/Vis Spectrophotometer, GE Healthcare, Piscataway, N.J.). Samples were then bleached under room light for 10 minutes and scanned again. The difference spectra at 500 nm between pre- and post-bleached samples were used to determine rhodopsin content using a molar extinction coefficient of […] (37). The values were normalized to the total lysate volume, and data are presented as rhodopsin content/retina.

[2] = tested on: rhodopsin; experiment: Rhodopsin regeneration after topical eye drops in mice; assay type: in vivo, Balb/c mice; conditions: for % of Rhodopsin recovery: 5% in eye drop at 6, 3 and 0 h before dark adaptation, LA + 1 h DA, DA control = 100; for inhibition of rhodopsin regeneration as eye drop: eye drop formulation, summary of Table 7
Protocol: Panel A: Application scheme and harvesting of the eye. 3 h group received 2 applications and 6 h group received 3 applications. Panel B: Rhodopsin content was measured as pmole/eye. In 1 h in the dark, untreated eyes (NT-LA 1 h DA, no treatment-light adapted followed by 1 hour dark adaptation) and vehicle-treated eyes recovered 75-80% rhodopsin [dark-adapted (DA) control is 100%], whereas 3 h PBN recovered only 43% and 6 h PBN only 29%. (***P<0.0001 compared to vehicle, n=8; ##p<0.005 between 3 h and 6 h group, n=8).
An eye drop formulation was used with various absorption enhancers for topical application of PBN to mouse eyes. […] One hour dark adaptation followed by light causes 75-80% recovery of bleachable rhodopsin in the Balb/c mice (FIG. 18B, NT-LA 1 h DA). The eye drop without PBN (vehicle) had no effect on rhodopsin regeneration (FIG. 18B, vehicle).
Eye drop formulations were prepared as described in Example 7 and contained 5% or 10% of a PBN derivative. The eye drop formulations were applied to Balb/c mice by the 6 h group application scheme shown in FIG. 18A, in which the eye drops were applied at 6, 3, and 0 h before dark adaptation. The eye drops were applied to completely light-adapted mouse eyes, and the mice were then moved to the dark for 1 h to allow the regeneration of bleachable rhodopsin. One hour dark adaptation followed by light causes […] recovery of bleachable rhodopsin in untreated mice (00, No Treatment). The eye drop without any nitrones (vehicle) had no effect on rhodopsin regeneration (000, vehicle).

[3] = target: T1, RPE65 isomerohydrolase (Bos taurus, UniProt Q28175); experiment: In vitro RPE65 isomerohydrolase assay with bovine RPE microsomes (Example 3); assay type: biochemical; conditions: for RPE65 inhibition compared with PBN: summary of Table 1
T1 construct: Bovine RPE microsomes were used as a source of the RPE65 protein; from tissue; host or cells: bovine RPE microsomes
T1 sequence (Q28175 whole entry): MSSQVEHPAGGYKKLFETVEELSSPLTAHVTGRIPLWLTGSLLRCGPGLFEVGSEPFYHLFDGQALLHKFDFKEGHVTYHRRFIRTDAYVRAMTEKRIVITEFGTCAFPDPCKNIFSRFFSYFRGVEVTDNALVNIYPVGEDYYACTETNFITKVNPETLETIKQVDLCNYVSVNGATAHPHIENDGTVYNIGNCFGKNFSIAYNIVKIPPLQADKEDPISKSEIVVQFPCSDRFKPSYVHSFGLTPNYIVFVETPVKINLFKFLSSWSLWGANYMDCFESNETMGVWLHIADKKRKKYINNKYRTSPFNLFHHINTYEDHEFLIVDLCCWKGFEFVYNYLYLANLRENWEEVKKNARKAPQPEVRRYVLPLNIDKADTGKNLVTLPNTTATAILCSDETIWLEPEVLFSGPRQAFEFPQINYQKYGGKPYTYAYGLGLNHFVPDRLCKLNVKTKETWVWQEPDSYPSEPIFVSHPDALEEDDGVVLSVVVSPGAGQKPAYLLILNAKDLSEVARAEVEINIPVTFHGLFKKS
Description: In this Example, the effect of several PBN analogs on RPE65 isomerohydrolase activity was investigated in an in vitro assay. The chemical structures of the PBN analogs utilized are described herein above. Bovine RPE microsomes were used as a source of the RPE65 protein and all-trans-[^3H] retinol was a substrate for the isomerohydrolase assay. The produced 11-cis-[^3H] retinol was quantified by normal phase HPLC with flow scintillation analyzer. The inhibition of isomerohydrolase activity was dependent on the PBN analog's concentration.
FIG. 9 also illustrates the calculation of IC50 values for the two difluoro-PBN analogs. IC50 values are the concentration of the inhibitor that inhibits 50% of the enzymatic activity. Therefore, the smaller the IC50 value, the better the drug.

[4] = tested on: Rat Retina; experiment: Light-induced retinal degeneration in rats, systemic (IP) nitrone; ERG and ONL histology; conditions: for A-Wave value at 4 cd·sec/m^2 / B-Wave value at 4 cd·sec/m^2 / A-Wave value at 400 cd·sec/m^2 / B-Wave value at 400 cd·sec/m^2 / % Protection (A-Wave at 4 cd·sec/m^2) / % Protection (A-Wave at 400 cd·sec/m^2) / % Protection (B-Wave at 4 cd·sec/m^2) / % Protection (B-Wave at 400 cd·sec/m^2) / ONL Thickness (μm) Inferior retina / ONL Thickness (μm) Superior retina: 50 mg/kg IP 0.5 h before 2,700 lux 6 h; for A-Wave value at 4 cd·sec/m^2 / B-Wave value at 4 cd·sec/m^2: ERG flash 4.0 cd·sec/m^2 (mostly rod function); for A-Wave value at 400 cd·sec/m^2 / B-Wave value at 400 cd·sec/m^2: ERG flash 400.0 cd·sec/m^2 (rod and cone function); for % Protection (A-Wave at 4 cd·sec/m^2) / % Protection (A-Wave at 400 cd·sec/m^2) / % Protection (B-Wave at 4 cd·sec/m^2) / % Protection (B-Wave at 400 cd·sec/m^2) / % Protection (ONL, Inferior retina) / % Protection (ONL, Superior retina): NLD = 100, Saline LD = 0; for ONL Thickness (μm) Inferior retina / ONL Thickness (μm) Superior retina: histology; for protection of retinal function (ERG A- and B-wave) / protective effect on retinal photoreceptors compared with PBN: 50 mg/kg IP; for protection of retinal function (ERG A- and B-wave): FIGS. 11-12; for protective effect on retinal photoreceptors compared with PBN: ONL histology (FIGS. 14-16)
Protocol: Consistent with previous publications (1-2,5), a dose of 50 mg/kg PBN and S-PBN dissolved in saline was chosen for intraperitoneal injection in the rats in the treatment group. An equal volume of saline was injected into control rats.
A light-stress paradigm of 2,700 lux for 6 hours was used to test the effect of PBN at different time points before (0.5 hour, 3 hours, 6 hours, 12 hours, 16 hours, and 24 hours) or after (0.5 hour and 3 hours) light exposure. The effect of S-PBN was tested using the same dose and protocol of PBN at 0.5 hours before light exposure.
Electroretinography—After light exposure, rats were returned to their dim cyclic light (5-10 lux) environment for 7 days before ERG recordings were performed. Flash ERGs were recorded with the Diagnosys Espion E2 ERG System (Diagnosys, LLC, Lowell, Mass.). Rats were maintained in total darkness overnight and prepared for ERG recording under dim red light. They were anesthetized with ketamine (120 mg/kg body weight) and xylazine (6 mg/kg body weight) intramuscularly (IM). One drop of 10% (v/v) phenylephrine was applied to the cornea to dilate the pupil, and one drop of 0.5% (v/v) proparacaine HCl was applied for local anesthesia. Rats were kept on a heating pad at 37° C. during recordings. A gold electrode was placed on the cornea, a reference electrode was positioned in the mouth, and a ground electrode was placed on the foot; rats were then placed inside a Ganzfeld illuminating sphere. Responses were differentially amplified, averaged, and stored. For the assessment of rod photoreceptor function (scotopic ERG), five strobe flash stimuli were presented at flash intensities at −2.3, −1.3, 0.7, and 2.7 log cd·s/m^2. The amplitude of the a-wave was measured from the pre-stimulus baseline to the a-wave trough. The amplitude of the b-wave was measured from the trough of the a-wave to the peak of the b-wave. For the evaluation of cone function (photopic ERG), a strobe flash stimulus (3.3 log cd·s/m^2) was presented to dilated, light-adapted (5 minutes at 1.7 log cd·s/m^2) rats. The amplitude of the cone b-wave was measured from the trough of the a-wave to the peak of the b-wave.
Histology—After ERG recordings, rats were killed by carbon dioxide asphyxiation for light microscopic evaluation of retinal structure. Immediately after death, eyes were excised, placed in fixative (4% (w/v) paraformaldehyde, 2% (v/v) trichloroacetic acid, 20% (v/v) isopropyl alcohol, 2% (v/v) zinc chloride, and 72% (v/v) distilled water), and embedded in paraffin. Sections of 5 μm were cut along the vertical meridian through the optic nerve and stained with hematoxylin and eosin (H&E).
The PBN derivatives were injected intraperitoneally (IP) into albino SD rats at 50 mg/kg body weight at 0.5 hours before the start of light-damage exposure at 2,700 lux for 6 hours. After the exposure, the rats were moved to their dim cyclic room to recover for a week. Retinal damage/protection was assessed by functional analysis by ERG and structural analysis of histological sections. Dark adapted (12 hour) and Light adapted (for 2 hour) retinas were utilized as controls.

[5] = apparent IC50, bovine RPE microsomes, all-trans-[3H] retinol substrate (Table 1), read-out: IC50 Values for the Inhibition of RPE65 Isomerohydrolase Reaction
[6] = in vitro RPE65 isomerohydrolase IC50 values repeated in Table 7, read-out: IC50

SMILES	inhibition at 50 mg/kg [1]	% of Rhodopsin recovery [2]	inhibition of rhodopsin regeneration as eye drop [2]	IC50 [3, 5]	IC50 [3, 6]	RPE65 inhibition compared with PBN [3]	A-Wave value at 4 cd·sec/m^2 [4]	B-Wave value at 4 cd·sec/m^2 [4]	A-Wave value at 400 cd·sec/m^2 [4]	B-Wave value at 400 cd·sec/m^2 [4]	% Protection (A-Wave at 4 cd·sec/m^2) [4]	% Protection (A-Wave at 400 cd·sec/m^2) [4]	% Protection (B-Wave at 4 cd·sec/m^2) [4]	% Protection (B-Wave at 400 cd·sec/m^2) [4]	ONL Thickness (μm) Inferior retina [4]	ONL Thickness (μm) Superior retina [4]	protection of retinal function (ERG A- and B-wave) [4]	protective effect on retinal photoreceptors compared with PBN [4]	% Protection (ONL, Inferior retina) [4]	% Protection (ONL, Superior retina) [4]
CC(C)(C)/[N+]([O-])=C/c1ccc(F)cc1 [Compound 2, 4-Fluorophenyl t-butyl nitrone]	88%	81.15%	not effective at inhibiting rhodopsin regeneration	60 µM	60 µM	more effective at inhibiting RPE65 activity than the native PBN molecule	163.0	572.4	295.7	762.6	90.4%	102.3%	79.5%	99.8%	42.4 ± 1.3 μm	42.0 ± 1.4 μm	protected retinal function significantly	comparable to PBN, and even appears to provide more protection than PBN	100%	96.2%
CC(C)(C)/[N+]([O-])=C/c1ccc(C(F)(F)F)cc1 [Compound 3, 4-Trifluoromethylphenyl t-butyl nitrone]	82%	52.80%	more effective in inhibiting rhodopsin regeneration than PBN	60 µM	60 µM	more effective at inhibiting RPE65 activity than the native PBN molecule	148.1	478.7	234.7	560.0	80.4%	79.7%	64.9%	71.2%	39.8 ± 1.1 μm	36.8 ± 1.4 μm	protected retinal function significantly	comparable to that of PBN	91.6%	83.1%
Cc1ccc(/C=[N+](\[O-])C(C)(C)C)cc1 [Compound 4, 4-Methylphenyl t-butyl nitrone]	54%	32.54%	more effective in inhibiting rhodopsin regeneration than PBN	100 µM	100 µM	–	126.4	369.9	191.3	443.9	65.9%	63.6%	48.1%	54.7%	36.2 ± 1.0 μm	35.2 ± 1.2 μm	protected retinal function significantly	slightly lower than that observed for PBN	79.7%	79.1%
COc1ccc(/C=[N+](\[O-])C(C)(C)C)cc1 [Compound 5, 4-Methoxyphenyl t-butyl nitrone]	–	79.10%	–	500 µM	500 µM	–	–	–	–	–	–	–	–	–	–	–	–	–	–	–
CCOc1ccc(/C=[N+](\[O-])C(C)(C)C)cc1 [Compound 6, 4-Ethoxyphenyl t-butyl nitrone]	–	81.99%	–	> 2000 µM	> 2000 µM	–	–	–	–	–	–	–	–	–	–	–	–	–	–	–
CC(C)(C)/[N+]([O-])=C/c1ccccc1F [Compound 7, 2-Fluorophenyl t-butyl nitrone]	–	–	–	1300 µM	1300 µM	–	–	–	–	–	–	–	–	–	–	–	–	–	–	–
CC(C)(C)/[N+]([O-])=C/c1cccc(F)c1 [Compound 8, 3-Fluorophenyl t-butyl nitrone]	–	–	–	280 µM	280 µM	–	–	–	–	–	–	–	–	–	–	–	–	–	–	–
CC(C)(C)/[N+]([O-])=C/c1cc(F)cc(F)c1 [Compound 9, 3,5-Difluorophenyl t-butyl nitrone]	–	–	–	500 µM	500 µM	–	–	–	–	–	–	–	–	–	–	–	–	–	–	–
CC(C)(C)/[N+]([O-])=C/c1ccc(F)c(F)c1 [Compound 10, 3,4-Difluorophenyl t-butyl nitrone]	–	39.31%	more effective in inhibiting rhodopsin regeneration than PBN	50 µM	50 µM	more effective at inhibiting RPE65 activity than the native PBN molecule	–	–	–	–	–	–	–	–	–	–	–	–	–	–
